pKi: −log10 of the molar value. Where two headings read alike, the source gives them in different places.
Columns and labels:
dopamine D1 receptor = molecular target: T1, dopamine D1 receptor (Sus scrofa, UniProt P50130); assay: radioligand binding assay, dopamine D1 receptor, [3H]SCH 23390; conditions: porcine striatum membranes, mean of two to five experiments in triplicate, read-out: Ki D1
T1 construct: native membrane preparations from porcine striatum; from tissue; host or cells: porcine striatum
Excerpt: (§1) Biological activity of the compounds has been determined in radioligand binding assays. These experiments have been done according to methods which are described in literature (Hübner, H. et al., J. Med. Chem. (2000), 43, 7562). For the determination of binding affinity to the receptors of the dopamine D2 family membranes were established carrying the human D2long, D2short, D3 or D4.4 receptor subtype stably expressed in Chinese hamster ovary cell lines. In principle, the binding experiments started when incubating an appropriate amount of membrane with the radioligand [^3H]spiperone and the particular test compounds used in a wide range of different concentrations from subnanomolar up to micromolar ones. In the same way, binding affinities of the test compounds to the dopamine D1 receptor were determined when using native membrane preparations from porcine striatum and the D1 selective radioligand [^3H]SCH 23390.
(§2) The results of the binding experiments are summarized in Table 1 as mean values of two to five individual experiments each done in triplicate and expressed as Ki values in nM.

human D3 = human D3 (Homo sapiens, UniProt P35462); assay: radioligand binding assay, dopamine D3 receptor, [3H]spiperone; conditions: CHO cell membranes, mean of two to five experiments in triplicate, read-out: Ki D3
Experimental: as §1, with “These” for “Biological activity of the compounds has been determined in radioligand binding assays. These”, “ones.” for “ones. In the same way, binding affinities of the test compounds to the dopamine D1 receptor were determined when using native membrane preparations from porcine striatum and the D1 selective radioligand [^3H]SCH 23390.”

5-HT1A = molecular target: T2, 5-HT1A (Sus scrofa, UniProt A0A4X1UTF5); assay: radioligand binding assay, serotonin 5-HT1A receptor, [3H]WAY 100635; conditions: porcine cortex membranes, mean of two to five experiments in triplicate, read-out: Ki 5-HT1a
T2 construct: membrane preparations from porcine cortex; from tissue; host or cells: porcine cortex
T2 sequence (A0A4X1UTF5 1-422): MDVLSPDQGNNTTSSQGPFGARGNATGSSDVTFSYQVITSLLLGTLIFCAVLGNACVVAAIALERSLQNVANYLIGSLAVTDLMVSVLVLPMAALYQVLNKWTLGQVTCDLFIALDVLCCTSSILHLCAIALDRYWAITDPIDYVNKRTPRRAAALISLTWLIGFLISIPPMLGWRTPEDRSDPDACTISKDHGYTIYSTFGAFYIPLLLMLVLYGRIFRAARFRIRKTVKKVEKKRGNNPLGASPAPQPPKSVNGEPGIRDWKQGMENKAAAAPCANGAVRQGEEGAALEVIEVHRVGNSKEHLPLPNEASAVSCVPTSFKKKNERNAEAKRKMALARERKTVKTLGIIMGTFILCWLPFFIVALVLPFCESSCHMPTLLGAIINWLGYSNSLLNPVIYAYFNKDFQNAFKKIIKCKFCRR
Experimental: (§3) The investigation of receptor binding to the serotonin and adrenergic receptors was done according to a published procedure (Heindl, C. et al., Tetrahedron: Asymmetry (2003), 14, 3141-3152). In detail, for the determination of the binding properties to serotonin receptors membrane preparations from porcine cortex was incubated with the 5-HT1A selective radioligand [^3H]WAY 100635 or with the 5-HT2 selective compound [^3H]ketanserin. The measurement of alpha-1 and alpha-2 receptor binding was achieved when utilizing porcine cortical membranes and the selective radioligands [^3H]prazosin (for alpha-1) and [^3H]RX821002 in an assay similar to that described above.
as §2

human D2long, D2short = human D2long, D2short (Homo sapiens, UniProt P14416); assay: biochemical; format: binding; conditions: CHO cell membranes, [3H]spiperone; mean of two to five experiments in triplicate; read-out: Ki D2
Experimental: as §1, with “These” for “Biological activity of the compounds has been determined in radioligand binding assays. These”, “ones.” for “ones. In the same way, binding affinities of the test compounds to the dopamine D1 receptor were determined when using native membrane preparations from porcine striatum and the D1 selective radioligand [^3H]SCH 23390.”

5-HT2 = molecular target: T3, 5-HT2 (Sus scrofa, UniProt P50129); assay: radioligand binding assay, serotonin 5-HT2 receptor, [3H]ketanserin; set-up: species or system porcine
T3 construct: membrane preparations from porcine cortex; from tissue; host or cells: porcine cortex

human D4.4 = molecular target: T4, human D4.4 (Homo sapiens, UniProt P21917); assay: radioligand binding assay, dopamine D4.4 receptor, [3H]spiperone; conditions: CHO cell membranes, mean of two to five experiments in triplicate, read-out: Ki D4.4
T4 sequence (P21917 1-419): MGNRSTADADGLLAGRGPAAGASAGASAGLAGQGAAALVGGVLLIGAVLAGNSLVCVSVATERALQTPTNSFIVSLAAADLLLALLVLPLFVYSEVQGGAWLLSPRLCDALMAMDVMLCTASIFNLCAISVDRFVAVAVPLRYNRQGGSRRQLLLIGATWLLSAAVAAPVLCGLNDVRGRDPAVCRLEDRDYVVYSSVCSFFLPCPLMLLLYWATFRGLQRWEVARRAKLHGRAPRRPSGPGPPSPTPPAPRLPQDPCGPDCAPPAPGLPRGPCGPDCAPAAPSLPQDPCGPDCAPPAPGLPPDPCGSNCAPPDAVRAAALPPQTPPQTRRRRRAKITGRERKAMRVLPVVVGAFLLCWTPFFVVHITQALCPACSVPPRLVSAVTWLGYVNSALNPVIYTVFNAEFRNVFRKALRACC
Excerpt: as §1, §2

alpha-1 = assay: radioligand binding assay, adrenergic alpha-1 receptor, [3H]prazosin; conditions: porcine cortical membranes, mean of two to five experiments in triplicate, read-out: Ki alpha1
Experimental: as §3, §2

[1] = porcine cortex membranes, [3H]ketanserin, mean of two to five experiments in triplicate, read-out: Ki 5-HT2

T1 sequence (P50130 whole entry): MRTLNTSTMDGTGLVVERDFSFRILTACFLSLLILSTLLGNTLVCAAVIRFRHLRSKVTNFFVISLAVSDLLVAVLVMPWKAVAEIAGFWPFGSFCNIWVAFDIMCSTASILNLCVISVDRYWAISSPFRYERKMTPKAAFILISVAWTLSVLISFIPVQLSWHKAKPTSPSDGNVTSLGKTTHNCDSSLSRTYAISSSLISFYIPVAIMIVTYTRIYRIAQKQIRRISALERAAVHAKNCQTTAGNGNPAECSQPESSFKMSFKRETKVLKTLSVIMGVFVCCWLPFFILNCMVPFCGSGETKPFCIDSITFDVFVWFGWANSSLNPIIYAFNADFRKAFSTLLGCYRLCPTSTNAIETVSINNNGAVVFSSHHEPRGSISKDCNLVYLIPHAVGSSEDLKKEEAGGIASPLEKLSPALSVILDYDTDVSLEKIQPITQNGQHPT
human D2long, D2short, sequence (P14416 whole entry): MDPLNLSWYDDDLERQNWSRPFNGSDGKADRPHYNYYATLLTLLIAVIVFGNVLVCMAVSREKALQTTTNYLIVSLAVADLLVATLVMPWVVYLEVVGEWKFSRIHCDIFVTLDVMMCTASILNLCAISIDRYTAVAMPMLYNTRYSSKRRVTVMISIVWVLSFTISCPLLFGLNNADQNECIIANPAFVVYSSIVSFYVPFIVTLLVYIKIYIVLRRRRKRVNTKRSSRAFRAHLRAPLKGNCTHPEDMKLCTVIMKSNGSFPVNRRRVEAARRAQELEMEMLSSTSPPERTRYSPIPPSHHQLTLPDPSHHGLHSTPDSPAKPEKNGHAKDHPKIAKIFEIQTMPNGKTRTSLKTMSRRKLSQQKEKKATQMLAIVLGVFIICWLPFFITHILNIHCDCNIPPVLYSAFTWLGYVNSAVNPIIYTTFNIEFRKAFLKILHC
human D3, sequence (P35462 whole entry): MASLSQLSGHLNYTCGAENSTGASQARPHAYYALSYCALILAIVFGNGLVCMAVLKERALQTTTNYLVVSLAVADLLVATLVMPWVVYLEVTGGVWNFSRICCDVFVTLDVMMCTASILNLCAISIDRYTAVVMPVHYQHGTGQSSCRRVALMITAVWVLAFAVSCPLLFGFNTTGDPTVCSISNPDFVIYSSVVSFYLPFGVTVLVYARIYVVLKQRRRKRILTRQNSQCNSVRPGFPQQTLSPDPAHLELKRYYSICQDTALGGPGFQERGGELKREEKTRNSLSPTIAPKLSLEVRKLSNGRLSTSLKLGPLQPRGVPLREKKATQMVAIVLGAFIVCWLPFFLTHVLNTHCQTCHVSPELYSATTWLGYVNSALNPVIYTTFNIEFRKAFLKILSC
T3 sequence (P50129 whole entry): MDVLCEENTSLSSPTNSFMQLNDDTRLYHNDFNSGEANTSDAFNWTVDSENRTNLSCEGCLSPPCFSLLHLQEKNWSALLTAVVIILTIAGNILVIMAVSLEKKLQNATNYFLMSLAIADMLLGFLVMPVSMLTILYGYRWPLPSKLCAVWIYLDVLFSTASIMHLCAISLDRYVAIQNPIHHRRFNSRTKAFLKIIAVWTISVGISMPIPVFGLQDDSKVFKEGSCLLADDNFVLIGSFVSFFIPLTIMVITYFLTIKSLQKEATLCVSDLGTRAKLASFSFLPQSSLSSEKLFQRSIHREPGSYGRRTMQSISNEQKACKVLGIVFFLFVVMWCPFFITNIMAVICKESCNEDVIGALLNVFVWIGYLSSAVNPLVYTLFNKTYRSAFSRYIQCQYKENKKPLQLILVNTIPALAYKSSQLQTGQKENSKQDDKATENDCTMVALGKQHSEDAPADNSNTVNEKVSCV

Row | Compound | pKi (dopamine D1 receptor) | pKi (human D3) | pKi (5-HT1A) | pKi (human D2long, D2short) | pKi (5-HT2) | pKi (human D4.4) | pKi (alpha-1) | pKi (5-HT2; [1])
1 | Cc1ccc(CNCC2(F)CCN(C(=O)c3cc4cc(Br)ccc4s3)CC2)nc1 [Example E24, 5-Bromobenzo[b]thien-2-yl-[4-fluoro-4-[[(5-methylpyridin-2-ylmothyl)amino]methyl]piporidin-1-yl]-methanone] | < 5.30 | 5.30 to 6.30 | 6.30 to 7.30 | < 5.30 | < 5.30 | 5.30 to 6.30 | 6.30 to 7.30 | 
2 | Cc1ccc(CNCC2(F)CCN(C(=O)c3csc4ccccc34)CC2)nc1 [Example E25, Benzo[b]thien-3-yl-[4-fluoro-4-[[(5-methylpyridin-2-ylmethyl)amino]methyl]piperidin-1-yl]-methanone] | < 5.30 | < 5.30 | > 7.30 | < 5.30 |  | 6.30 to 7.30 | 5.30 to 6.30 | < 5.30
3 | Cc1ccc(CNCC2(F)CCN(C(=O)c3cc4sccc4s3)CC2)nc1 [Example E26, [4-Fluoro-4-[[(5-methylpyridin-2-ylmethyl)amino]methyl]piperidin-1-yl]-thieno[3,2-b]thien-2-yl-mothanone] | < 5.30 | < 5.30 | > 7.30 | < 5.30 | < 5.30 | 5.30 to 6.30 | 5.30 to 6.30 | 
4 | Cc1ccc(CNCC2(F)CCN(C(=O)c3cc4ccsc4s3)CC2)nc1 [Example E27, [4-Fluoro-4-[[(5-methylpyridin-2-ylmethyl)amino]methyl]piperidin-1-yl]-thieno[2,3-b]thien-2-yl-methanone] | < 5.30 | < 5.30 | > 7.30 | < 5.30 |  | 6.30 to 7.30 | 5.30 to 6.30 | < 5.30
5 | Cc1ccc(CNCC2(F)CCN(C(=O)c3sc4sccc4c3Cl)CC2)nc1 [Example E28, 3-Chlorothieno[2,3-b]thion-2-yl-[4-fluoro-4-[[(5-methylpyridin-2-ylmothyl)amino]methyl]piperidin-1-yl]-mothanone] | < 5.30 | 5.30 to 6.30 | > 7.30 | 5.30 to 6.30 | < 5.30 | 6.30 to 7.30 | 5.30 to 6.30 | 
6 | Cc1ccc(CNCC2(F)CCN(C(=O)c3scc4c3CCCC4)CC2)nc1 [Example E29, [4-Fluoro-4-[[(5-methylpyridin-2-ylmethyl)amino]methyl]pipendin-1-yl]-4,5,6,7-tetrahydrobenzo[c]thien-1-yl-methanone] | < 5.30 | < 5.30 | > 7.30 | < 5.30 |  | 5.30 to 6.30 | 5.30 to 6.30 | < 5.30
7 | Cc1ccc(CNCC2(F)CCN(C(=O)c3sc(Br)c4c3OCCO4)CC2)nc1 [Example E30, 7-Bromo-2,3-dihydrothieno[3,4-b][1,4]dioxin-5-yl-[4-fluoro-4-[[5-methylpyridin-2-ylmethyl)aminolmothyl]piperidin-1-yl]-methanone] | < 5.30 | 5.30 to 6.30 | > 7.30 | < 5.30 | < 5.30 | 5.30 to 6.30 | 5.30 to 6.30 | 
8 | Cc1ccc(CNCC2(F)CCN(C(=O)c3ccco3)CC2)nc1 [Example E31, [4-Fluoro-4-[[(5-methylpyridin-2-ylmethyl)amino]methyl]piperidin-1-yl]-furan-2-yl-methanone] | < 5.30 | < 5.30 | 6.30 to 7.30 | < 5.30 |  | < 5.30 | < 5.30 | < 5.30
9 | Cc1ccc(CNCC2(F)CCN(C(=O)c3ccoc3)CC2)nc1 [Example E33, [4-Fluoro-4-[[(5-methylpyridin-2-ylmethyl)amino]methyl]piperidin-1-yl]-furan-3-yl-methanone] | < 5.30 | < 5.30 | 6.30 to 7.30 | < 5.30 |  | < 5.30 | < 5.30 | < 5.30
10 | Cc1ccc(CNCC2(F)CCN(C(=O)c3coc(Br)c3)CC2)nc1 [Example E34, 5-Bromofuran-3-yl-[4.fluoro-4-[[(5-methylpyridin-2-ylmethyl)amino]methyl]piperidin-1-yl]-methanone] | < 5.30 | < 5.30 | > 7.30 | < 5.30 | < 5.30 | 5.30 to 6.30 | 5.30 to 6.30 | 
11 | Cc1ccc(CNCC2(F)CCN(C(=O)c3cc4ccccc4o3)CC2)nc1 [Example E35, Benzo[b]furan-2-yl-[4-fluoro-4-[[(5-methylpyridin-2-ylmothyl)amino]methyl]piperidin-1-yl]-methanone] | < 5.30 | < 5.30 | 6.30 to 7.30 | < 5.30 | < 5.30 | 5.30 to 6.30 | 5.30 to 6.30 | 
12 | Cc1ccc(CNCC2(F)CCN(C(=O)c3cc4ccccn4n3)CC2)nc1 [Example E42] | < 5.30 | < 5.30 | 6.30 to 7.30 | < 5.30 | < 5.30 | < 5.30 | < 5.30 | 
13 | Cc1ccc(CNCC2(F)CCN(C(=O)c3cnn4ccccc34)CC2)nc1 [Example E43, [4-Fluoro-4-[[(5-methylpyridin-2-ylmethyl)amino]methyl]piperidin-1-yl]-pyrazolo[1,5-a]pyridin-3-yl-methanone] | < 5.30 | < 5.30 | 6.30 to 7.30 | < 5.30 |  | < 5.30 | 5.30 to 6.30 | < 5.30
14 | [4-Fluoro-4-[[(5-methylpyridin-2-ylmethyl)amino]methyl]piperidin-1-yl]-indol-2-yl-methanone [Example E41] | < 5.30 | 5.30 to 6.30 | 6.30 to 7.30 | < 5.30 |  | 5.30 to 6.30 | 5.30 to 6.30 | < 5.30
